Test results as given in patent publication US20050209345A1, “Lymphatic drug delivery system” (priority 2001, published 2005).
Where two headings read alike, the source gives them in different places.

Key:
[1] = in soybean oil; cited from earlier work
[2] = rats, oral, cited from earlier work
[3] = rats, soybean emulsion, 24 h post dosing; cited from earlier work
[4] = in vivo; cited from earlier work
[5] = conscious rats, cited from earlier work
[6] = dog, in vivo, po
Experimental: (§1) All surgical and experimental procedures were performed in accordance with the guidelines and approval of the local Institutional Animal Experimentation Ethics Committee. Studies were conducted in male greyhound dogs (28-35 kg), and their health status was verified by a veterinarian prior to the study. Prior to surgery, each dog was fed a small lipid meal to facilitate identification of the thoracic duct. […] Each dog received intravenous infusion of Lactated Ringer's solution (300 mL/h) during surgery, and a post-operative injection of antibiotic (cephazolin, 20 mg/kg) and analgesic (carprofen, 4 mg/kg).
(§2) The ventral abdomen was firstly clipped and prepared for aseptic surgery. A 5 cm long ventral midline laparotomy was performed to allow a loop of jejunum to be exteriorised. A 133 mm 16 gauge cannula was then inserted into a jejunal vein to the level of the portal vein. The cannula was stabilised in both the portal and jejunal veins with a ligature of 3/0 silk to the jejunal vein and a minimal volume extension tube, filled with heparinised saline, was then attached and externalised through a separate stab incision in the left flank and stabilised with sutures. The laparotomy wound was closed in anatomical layers with 3/0 polydioxinone sutures. The position of the cannula in the portal vein was confirmed by a portal venogram following a 10 mL injection of a contrast dye (Iohexol), and cannula patency was maintained by small volume flushing with heparinised saline (1 U/mL).
(§3) The left ventral neck area and cranial thorax was clipped and prepared for aseptic surgery. A curved incision was made over the left external jugular vein and the vein was then dissected from the surrounding tissues to the axillary vein. At the junction of the internal jugular and brachiocephalic veins, the thoracic duct ampulla was identified by its whitish appearance This was then ligated at the point of entrance into the brachiocephalic vein and all tributaries converging to the thoracic duct were ligated to ensure the return of lymph through the main lymphatic canal. […]

[7] = rats; cited from earlier work
[8] = Thoracic lymph duct and portal vein cannulated greyhound dog study: lymphatic transport of halofantrine and triglyceride, systemic availability; conditions: fed dogs, IV 2 mg/kg, over 12 h, mean +/- sd, n = 3
Experimental: as §1, §2, §3

CC(C)CCC[C@@H](C)[C@H]1CC[C@H]2[C@@H]3[C@@H](C)C[C@H]4N(C)C(=O)CC[C@]4(C)[C@H]3CC[C@]12C [MK-386]
lipid solubility [1]: > 80 mg/mL
rank order of total amount transported into the mesenteric lymph by formulation ([2]; 6 h post-dosing): aqueous suspension>mixed lipid/surfactant system>soybean oil
levels of radioactivity in the lymph compared with the portal blood ([2]; all three formulations): up to 80 fold

Cc1ccc2oc(N[C@@H](CC3CCCCC3)c3ccccn3)nc2c1 [ontazolast]
total amount of lymphatically transported ontazolast, increase versus aqueous based suspension [3]: ~50 fold

CCCCCCCCCCCCCCCC(=O)OC/C=C(C)/C=C/C=C(C)/C=C/C1=C(C)CCCC1(C)C [retinyl palmitate]
lymphatic transport, aqueous polysorbate 80 micellar solution compared with lipid solution [4]: two-fold increase

CCCCCCCCCCC(C)(C)C(=O)Nc1c(OC)cc(OC)cc1OC [Cl-976]
total amount transported in lymph as percent of dose, lipid-based emulsion compared with suspension ([5]; over 14 h): 7 times
absolute amount of drug transported lymphatically [5]: < 1%

CCCCN(CCCC)CCC(O)c1cc2c(Cl)cc(Cl)cc2c2cc(C(F)(F)F)ccc12 (centres unmarked) [Hf base]
Cum Hf transport in lymph (% dose) [6]: 1.3 +/− 0.7 % dose
Transport into syst circulation (% dose) [6]: 30.2 +/− 18.7 % dose

COC1(O[C@H]2CC[C@H]3[C@@H]4CC[C@H]5C[C@@H]6S[C@@H]6C[C@]5(C)[C@H]4CC[C@]23C)CCCC1 [mepitiostane]
extent of lymphatic transport, polysorbate 80 micellar solution versus triglyceride lipid vehicle [7]: no significant differences

CCCCN(CCCC)CCC(O)c1cc2c(Cl)cc(Cl)cc2c2cc(C(F)(F)F)ccc12 (centres unmarked) [Hf, halofantrine]
Cum Hf transport in lymph (% dose) [8]: 1.5 +/− 0.2 % dose
